For data set [1], the system named is A. baumannii BAA-1710 and -1794 biofilm. Briefly: Antibiofilm screening at 100 µg/mL (crystal violet). The class given is cell-based, Acinetobacter baumannii. The note with it: n = 3. As to the method: As the first step, antibacterial screening (n = 3) was performed on MDR strains of A. baumannii listed in Table 5, with each peptide at a concentration of 100 μg/mL in MHB. […] Growth was measured spectrophotometrically at OD600 nm at 20–24 h, following the CLSI protocol for A. baumannii incubation for MIC [99]. Similarly, biofilm formation was first established for tested A. baumannii strains using our crystal violet-staining protocol described below. Then, antibiofilm screening (n = 3) of each peptide against biofilm formation of A. baumannii was determined at 100 μg/mL. Peptides that were active in this screen were then analyzed in more detail as described below. Positive controls were used, such as LL-37 and polymyxin B [18, 66, 67]. Samples containing only the medium were considered as the sterility control whereas samples containing only bacteria served as the growth control.
The MBIC assay measures the lowest concentration of a compound that inhibits the biofilm formation of an organism. […] After the incubation of bacteria with AMPs, OD600 nm was measured for approximate bacterial growth. […] After that, 200 µL of 33% glacial acetic acid was added to resolubilize the stain, and biofilm mass was measured by a spectrophotometric reading at OD590. […]

Data set [2] relates to A. baumannii BAA-1800 biofilm. The note with it: A. baumannii BAA-1800, TSB, 24 h 37 °C. The method, then: The MBIC assay measures the lowest concentration of a compound that inhibits the biofilm formation of an organism. A series of decreasing peptide concentrations starting from 64 μg/mL to 0.25 μg/mL (100 µL) were incubated with 1 × 10^5 CFU of A. baumannii in 100 µL of Tryptic Soy broth (TSB) in a polystyrene 96-well plate (Falcon 353072, Corning, NY, USA) for 24 h at 37 °C to assess biofilm formation inhibition, as described previously with minor modifications. After the incubation of bacteria with AMPs, OD600 nm was measured for approximate bacterial growth. Media were carefully removed, and wells (n = 3) were rinsed with tap water. Plates were heat-fixed at 70 °C for 1 h, and 200 µL of 0.1% crystal violet diluted in deionized water were added to wells and allowed to incubate for 15 min. Excess stain was rinsed off with tap water, and the plates were air-dried. After that, 200 µL of 33% glacial acetic acid was added to resolubilize the stain, and biofilm mass was measured by a spectrophotometric reading at OD590. Bacteria alone (no treatment) served as the 100% biofilm control, and media alone and media with a peptide/drug were used as the sterility control and the 0% biofilm control.

Data set [3] concerns AB5075 pre-formed (24 h) biofilm. The data set is classed as cell-based, Acinetobacter baumannii. As to the method: The MBEC assay measures the lowest concentration of an antimicrobial agent that can eradicate established biofilms. Using the MBEC assay in the Biofilm Inoculator 96-well base (Innovotech Cat #1911, Edmonton, AB, Canada) and following the manufacturer’s protocol, 150 µL (n = 6) of 1 × 10^6 CFU/mL of AB5075 in TSB was incubated for 24 h at 37 °C at 110 rpm for biofilm formation. The lid containing pegs was rinsed with sterile PBS for 5 min, and then the lid was placed in a peptide challenge polypropylene 96-well plate containing a decreasing series of drug concentrations and incubated for 24 h at 37 °C at 110 rpm. Pegs were washed three times with tap water, heat-fixed for 70 °C for 1 h, and stained with 0.1% crystal violet for 15 min. Excess stain was rinsed off with tap water and allowed to dry. Stained pegs were resolubilized with 200 µL of 33% glacial acetic acid. OD590 was obtained to measure the remaining biofilm. Pegs with only bacteria served as the growth control and 100% biofilm control. Media alone and media with a peptide/drug served as the sterility controls. […] The experiment was performed twice.

The test system of data set [4] is AB5075. The experiment in a line: Membrane depolarization assay (DiSC3(5)). The class given is cell-based, Acinetobacter baumannii. The note with it: 50 µg/mL, DiSC3(5) fluorescence, 20 min, versus untreated bacteria. As to the method:
A membrane depolarization assay was performed using a cationic dye, 3,3′-dipropylthiadicarbocyanine iodide (DiSC3(5)) as we previously described, with some modifications. Briefly, AB5075 was grown overnight on a Tryptic Soy agar, and opaque colonies were emulsified in DPBS (Gibco) until the 0.5 McFarland standard was achieved (~1 × 10^8 CFU/mL). A bacterial suspension of 4 × 10^7 CFU/mL was prepared and washed twice with DPBS, and then bacteria were resuspended in DPBS containing 10 µg/mL of DiSC3(5). An aliquot of 100 µL of the bacteria DiSC3(5) suspension was added to a black 96-well flat plate (Ultracruz Polypropylene Microplate sc-204462, Santacruz, CA, USA). The plate was incubated at room temperature in BioTek Cytation 5 and monitored until fluorescence stopped decreasing. An aliquot of 100 µL of peptide or DPBS (the untreated control) was added to each well (a final concentration of peptide of 50 µg/mL) and the plate was immediately returned to the plate reader. […] Readings were taken every 15 s for 20 min (excitation = 622 nm; emission = 670 nm). The experiment was repeated twice.

Data set [5] deals with AB5075. Briefly: Membrane permeabilization assay (ethidium bromide uptake). The class given is cell-based, Acinetobacter baumannii. The note with it: 50 µg/mL, 10 µM ethidium bromide, 20 min at 37 °C, versus untreated control. The method, then:
Membrane permeabilization was assessed using ethidium bromide uptake after peptide exposure, as we have previously described. AB5075 was grown on a Tryptic Soy agar for 18–24 h. Colonies presenting opaque morphology were picked and resuspended in DPBS (Gibco, Waltham, MA, USA) to achieve 0.1 OD600. A total of 180 µL of the bacterial suspension was mixed with a final peptide concentration of 50 µg/mL and a final ethidium bromide concentration of 10 µM in a black 96-well flat plate (Ultracruz Polypropylene Microplate sc-204462, Santacruz, CA, USA). The plate was transferred immediately to BioTek Cytation 5 (Santa Clara, CA, USA) for fluorescence intensity readings every 2 min for 20 min at 37 °C (excitation: 535 nm; emission: 590 nm). The relative fluorescence units (RFUs) were calculated. Tested samples minus no peptide control that has EtBr. LL-37 and polymyxin B were used as the controls in this experiment. The experiment was run in three replicates twice. Student’s t-test was used to determine statistical significance.

Another data set concerns Galleria mellonella. Briefly: Waxworm toxicity testing. The note with it: 10 µg in 10 µL PBS injected per worm, 10 worms per group, 72 h.

SMILES strings stand for the structures. Residues, ends and D or L forms follow the SMILES beside them.

Procedure for Galleria mellonella: Galleria mellonella were obtained from Vanderhorst Wholesale (Saint Mary’s, OH, USA), and 10 worms with equal weights between 200 to 300 mg were assigned to each group. […] The experiment was performed twice, and the results were analyzed by the Mantel–Cox test.

For `CC[C@H](C)CCCCC(=O)N[C@@H](CCN)C(=O)N[C@H](C(=O)N[C@@H](CCN)C(=O)N[C@H]1CCNC(=O)[C@H]([C@@H](C)O)NC(=O)[C@H](CCN)NC(=O)[C@H](CCN)NC(=O)[C@H](CC(C)C)NC(=O)[C@@H](Cc2ccccc2)NC(=O)[C@H](CCN)NC1=O)[C@@H](C)O` [Polymyxin B] (HELM PEPTIDE1{[CC[C@H](C)CCCCC(=O)[*:2]].[Dab].T.[Dab].[Dab].[Dab].[dF].L.[Dab].[Dab].T}$PEPTIDE1,PEPTIDE1,5:R3-11:R2$$$V2.0; N-terminus assumed; bridges inferred), in data set [1], the “Biofilm inhibition in screen” value is reported as “complete biofilm inhibition”. Also, the MBEC50 in data set [2] (crystal violet) came to 2 µg/mL. Further, the MBIC100 in data set [2] (polystyrene plate, crystal violet OD590, n = 3) was 1 µg/mL. In addition, the “Concentration giving complete eradication of bacteria (reduction in CFU) in pre-formed biofilms” value in data set [3] (AB5075 pre-formed biofilm, CFU determination) came to 2 µg/mL. In addition, the MBEC result in data set [3] (MBEC100, AB5075 24 h pre-formed biofilm on pegs, 24 h challenge, crystal violet OD590, n = 6) was “* 2 µg/mL”. The “crystal violet-stained biofilm mass maintained” value in data set [3] (treated with between 2 and 16 µg/mL, AB5075 pre-formed biofilm) was “up to 40%”. The Membrane depolarization result in the data set on AB5075 [4] was “significant membrane depolarization effect”. Also, in the data set with AB5075 [5], the Membrane permeabilization result was “disrupted bacterial membranes”. The compound also returned a Survival of worms in the data set on Galleria mellonella of 80%.

The record behind these values is publication PMC10525135, “Computationally Designed AMPs with Antibacterial and Antibiofilm Activity against MDR Acinetobacter baumannii” (Antibiotics, 2023).
